Measurements published in patent US9981954B2, “2-(pyrazin-2-ylcarbonylaminomethyl) benzimidazolium compounds as epithelial sodium channel inhibitors” (Boehringer Ingelheim International GmbH, priority 2015, dated 2018).

What was measured:
[1] = target: T1, ENaC (Epithelial Sodium Channel), Mouse kidney M-1 cells (Mus musculus, UniProt Q61180+Q9WU38+Q9WU39); experiment: Ussing Chamber assay: inhibition of amiloride sensitive short circuit current in M-1 cells; format: cell-based; details: apical application, 37° C.
T1 construct: Mouse kidney M-1 cells were cultivated in DMEM containing 5% FCS and 5 μM dexamethasone; endogenous in cells; host or cells: Mouse kidney M-1 cells (polarised on transwell filters, dexamethasone-treated)
T1 sequence (Q61180 1-699): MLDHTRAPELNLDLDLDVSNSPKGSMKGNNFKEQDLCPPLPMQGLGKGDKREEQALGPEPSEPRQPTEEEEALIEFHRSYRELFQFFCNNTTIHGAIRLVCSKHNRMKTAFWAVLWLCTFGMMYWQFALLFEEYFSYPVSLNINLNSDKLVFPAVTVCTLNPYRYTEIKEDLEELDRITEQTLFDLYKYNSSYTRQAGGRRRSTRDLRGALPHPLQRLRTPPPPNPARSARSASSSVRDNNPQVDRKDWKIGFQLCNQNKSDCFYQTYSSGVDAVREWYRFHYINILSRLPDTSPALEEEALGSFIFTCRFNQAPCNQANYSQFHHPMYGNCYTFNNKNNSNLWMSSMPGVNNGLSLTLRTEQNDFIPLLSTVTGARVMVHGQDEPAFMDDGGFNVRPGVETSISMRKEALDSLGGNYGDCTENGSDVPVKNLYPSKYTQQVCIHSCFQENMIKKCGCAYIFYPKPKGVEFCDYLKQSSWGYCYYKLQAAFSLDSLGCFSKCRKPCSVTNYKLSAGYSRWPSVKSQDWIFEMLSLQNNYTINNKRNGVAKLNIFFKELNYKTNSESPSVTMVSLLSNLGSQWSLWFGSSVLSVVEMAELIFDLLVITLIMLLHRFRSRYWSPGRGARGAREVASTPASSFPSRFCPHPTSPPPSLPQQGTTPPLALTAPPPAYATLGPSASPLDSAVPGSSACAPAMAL
T1 sequence (Q9WU38 1-638): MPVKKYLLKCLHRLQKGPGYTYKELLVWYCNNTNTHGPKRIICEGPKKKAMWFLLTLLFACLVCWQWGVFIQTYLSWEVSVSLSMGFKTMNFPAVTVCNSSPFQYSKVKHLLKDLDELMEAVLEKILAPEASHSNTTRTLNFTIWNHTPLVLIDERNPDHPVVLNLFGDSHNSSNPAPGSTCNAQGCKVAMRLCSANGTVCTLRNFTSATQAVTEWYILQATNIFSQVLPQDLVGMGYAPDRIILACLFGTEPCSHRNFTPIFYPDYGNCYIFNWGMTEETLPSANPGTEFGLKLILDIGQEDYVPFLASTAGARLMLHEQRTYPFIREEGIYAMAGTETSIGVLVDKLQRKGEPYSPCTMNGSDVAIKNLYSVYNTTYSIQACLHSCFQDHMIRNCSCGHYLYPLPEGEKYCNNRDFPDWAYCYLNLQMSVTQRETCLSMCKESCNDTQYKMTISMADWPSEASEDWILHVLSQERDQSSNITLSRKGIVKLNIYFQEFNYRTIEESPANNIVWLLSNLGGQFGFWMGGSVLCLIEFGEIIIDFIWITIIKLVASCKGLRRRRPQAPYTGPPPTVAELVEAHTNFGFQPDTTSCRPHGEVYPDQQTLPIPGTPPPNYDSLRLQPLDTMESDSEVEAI
T1 sequence (Q9WU39 1-655): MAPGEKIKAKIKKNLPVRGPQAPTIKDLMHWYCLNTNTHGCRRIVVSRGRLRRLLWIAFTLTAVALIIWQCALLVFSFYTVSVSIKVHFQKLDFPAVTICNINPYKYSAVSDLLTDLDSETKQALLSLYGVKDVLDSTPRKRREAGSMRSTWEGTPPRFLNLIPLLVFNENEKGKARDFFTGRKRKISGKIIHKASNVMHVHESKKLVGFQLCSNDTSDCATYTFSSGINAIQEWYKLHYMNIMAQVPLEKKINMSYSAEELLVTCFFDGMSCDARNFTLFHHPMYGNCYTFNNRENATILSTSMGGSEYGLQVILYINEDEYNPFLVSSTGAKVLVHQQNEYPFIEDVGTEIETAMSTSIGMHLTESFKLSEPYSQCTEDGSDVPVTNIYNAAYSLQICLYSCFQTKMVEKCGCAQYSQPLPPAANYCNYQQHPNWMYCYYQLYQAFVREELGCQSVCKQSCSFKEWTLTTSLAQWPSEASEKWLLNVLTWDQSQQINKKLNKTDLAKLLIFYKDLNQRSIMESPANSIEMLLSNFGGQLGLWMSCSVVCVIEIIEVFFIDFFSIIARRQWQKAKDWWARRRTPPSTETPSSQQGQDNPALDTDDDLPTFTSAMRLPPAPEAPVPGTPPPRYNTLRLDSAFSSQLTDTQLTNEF
Procedure: Ussing Chamber: Mouse kidney M-1 cells were cultivated in DMEM containing 5% FCS and 5 μM dexamethasone for 10 to 12 days on polyester transwell filters. Filters were inserted into a teflon-coated well-plate which fit into the ussing chamber system. Prior to measurement the medium of M-1 cells was replaced with Caco-2 transport buffer (Invitrogen, Germany). During measurements, the Ussing chamber temperature was kept at 37° C. Short circuit currents (I_sc) were measured in the voltage-clamp mode with the software package Lab View for data acquisition and analysis. The transepithelial electrical resistance (TEER) was determined by the application of voltage steps of ±5 mV every 5 sec. Compounds were administered at a final concentration of 3 μM or at increasing concentrations (1-3-10 μM) to the apical solution. At the end of each experiment the amiloride sensitive I_SC was measured by adding 3 μM amiloride to the apical compartment. Results are expressed as inhibition in percent of the amiloride effect or as IC50.

[2] = Permeability in CALU-3 cells; format: in vitro ADME; details: human, CALU-3 monolayers, pH 7.4, 37° C., 10 μM compound; for Papp A→B at 90 min, 10 μM: apical-to-basal; for Papp B→A at 90 min, 10 μM: basal-to-apical
Procedure: Permeability in CALU-3 Cells:
Permeability measurements across polarized, confluent CALU-3 cell monolayers grown on permeable filter supports are used to provide information on the potential of a compound to pass the lung epithelium.
CALU-3 cells (1-2×10^5 cells/l cm^2 area) are seeded on filter inserts (Costar transwell polycarbonate filters, 0.4 μm pore size) and cultured (for 10-12 days DMEM) until tight monolayers are formed. Compounds of interest are dissolved in appropriate solvent (DMSO, 10 mM stock solution). […] The transport solution (TL) is applied to the apical or basolateral donor side for measuring A-B or B-A permeability (3 filter replicates), respectively. The receiver side contains the same buffer as the donor side. After 30 min of accommodation, samples are collected at the start t0=0 min and at the end of the experiment tn=90 min from the donor and at 0, 30, 60, and 90 min also from the receiver chamber. Volume removed is […] by HTP-4 buffer. The compound concentration in the samples is measured by HPLC-MS/MS or scintillation counting. The permeability coefficient (Papp) and efflux ratio are calculated according to: Papp [cm/s]=(concentration receiver [nM]*volume receiver [mL]/time interval [sec])*(1/filter area)*(1/donor concentration [nM]).

SMILES	IC50 [1]	Papp A→B at 90 min, 10 μM [2]	Papp B→A at 90 min, 10 μM [2]
CCn1c(CNC(=O)c2nc(Cl)c(N)nc2N)[n+](CC(=O)N(C)CCN(C)C)c2ccc(OC)cc21 [Example 3.09]	33 nM		
CC[n+]1c(CNC(=O)c2nc(Cl)c(N)nc2N)n(CCCc2ccc(OCP(C)(C)=O)cc2)c2cc(OC)ccc21.O=C([O-])C(F)(F)F [Example 1.03]	8 nM	0.1 ×10⁻⁶ cm/s	0.07 ×10⁻⁶ cm/s
CCn1c(CNC(=O)c2nc(Cl)c(N)nc2N)[n+](CC(=O)N2CCCN(C(=O)OC(C)(C)C)CC2)c2ccc(OC)cc21 [Example 3.21]	28 nM		
CCn1c(CNC(=O)c2nc(Cl)c(N)nc2N)[n+](CC(=O)N2CCCNCC2)c2ccc(OC)cc21 [Example 6.04]	63 nM		
CCn1c(CNC(=O)c2nc(Cl)c(N)nc2N)[n+](CC(=O)N(CCO)CCO)c2ccc(OC)cc21 [Example 3.15]	20 nM		
CC[n+]1c(CNC(=O)c2nc(Cl)c(N)nc2N)n(CCOCCOCCN)c2cc(OC)ccc21 [Example 6.02]	4 nM		
CCn1c(CNC(=O)c2nc(Cl)c(N)nc2N)[n+](CC(=O)N(CCOC)CCOC)c2ccc(OC)cc21 [Example 3.01]	10 nM		
CCn1c(CNC(=O)c2nc(Cl)c(N)nc2N)[n+](CC(=O)N2CCNCC2)c2ccc(OC)cc21.Cl.[Cl-] [Example 6.01]	47 nM	0.3 ×10⁻⁶ cm/s	0.2 ×10⁻⁶ cm/s
CCn1c(CNC(=O)c2nc(Cl)c(N)nc2N)[n+](CC(=O)N2CCOCC2)c2ccc(OC)cc21.[Br-] [Example 3.02]	5 nM	0.06 ×10⁻⁶ cm/s	0.2 ×10⁻⁶ cm/s
CCn1c(CNC(=O)c2nc(Cl)c(N)nc2N)[n+](CC(=O)N2CCC(N(C)C)CC2)c2ccc(OC)cc21 [Example 3.11]	110 nM		
CCn1c(CNC(=O)c2nc(Cl)c(N)nc2N)[n+](CC(=O)N(C)CCOC)c2ccc(OC)cc21.[Br-] [Example 3.13]	7 nM	0.07 ×10⁻⁶ cm/s	0.2 ×10⁻⁶ cm/s
COc1ccc2c(c1)n(CCF)c(CNC(=O)c1nc(Cl)c(N)nc1N)[n+]2CCOCCOCCO [Example 1.04]	2 nM		
CCn1c(CNC(=O)c2nc(Cl)c(N)nc2N)[n+](CC(=O)N2CCN(C)CC2)c2ccc(OC)cc21 [Example 3.05]	12 nM		
CCn1c(CNC(=O)c2nc(Cl)c(N)nc2N)[n+](CC(=O)NC)c2ccc(OC)cc21 [Example 3.14]	2 nM		
CCn1c(CNC(=O)c2nc(Cl)c(N)nc2N)[n+](CC(N)=O)c2ccc(OC)cc21 [Example 3.10]	1 nM		
CCNC(=O)C[n+]1c(CNC(=O)c2nc(Cl)c(N)nc2N)n(CC)c2cc(OC)ccc21 [Example 3.03]	4 nM		

SMILES	IC50 [1]	Papp A→B at 90 min, 10 μM [2]	Papp B→A at 90 min, 10 μM [2]
CCn1c(CNC(=O)c2nc(Cl)c(N)nc2N)[n+](CC(=O)NCCOC)c2ccc(OC)cc21 [Example 3.04]	3 nM		
CCn1c(CNC(=O)c2nc(Cl)c(N)nc2N)[n+](CC(=O)NC2CCN(C(=O)OC(C)(C)C)CC2)c2ccc(OC)cc21.[Br-] [Example 3.12]	12 nM	0.09 ×10⁻⁶ cm/s	0.3 ×10⁻⁶ cm/s
CCn1c(CNC(=O)c2nc(Cl)c(N)nc2N)[n+](CC(=O)c2ccc(OC)c(OC)c2)c2ccc(OC)cc21.O=C([O-])C(F)(F)F [Example 8.01]	13 nM	0.3 ×10⁻⁶ cm/s	0.2 ×10⁻⁶ cm/s
CCn1c(CNC(=O)c2nc(Cl)c(N)nc2N)[n+](CCCC(=O)NCCN(C)C)c2ccc(OC)cc21 [Example 4.01]	1 nM		
CCn1c(CNC(=O)c2nc(Cl)c(N)nc2N)[n+](CC(=O)N2CCN(C(=O)OC(C)(C)C)CC2)c2ccc(OC)cc21.[Br-] [Example 3.08]	4 nM	0.1 ×10⁻⁶ cm/s	0.08 ×10⁻⁶ cm/s
CC[n+]1c(CNC(=O)c2nc(Cl)c(N)nc2N)n(C2CCN(C(=O)NCCOC)CC2)c2ccccc21.O=C[O-] [Example 7.01]	1 nM	0.07 ×10⁻⁶ cm/s	0.2 ×10⁻⁶ cm/s
CC[n+]1c(CNC(=O)c2nc(Cl)c(N)nc2N)n(CC2(CCc3ccccc3)CCN(C(=O)NC3CCN(C)CC3)CC2)c2ccccc21 [Example 10.01]	2 nM		
CCn1c(CNC(=O)c2nc(Cl)c(N)nc2N)[n+](CC(=O)NC2CCNCC2)c2ccc(OC)cc21 [Example 6.03]	17 nM		
COc1ccc2c(c1)[n+](CCF)c(CNC(=O)c1nc(Br)c(N)nc1N)n2CCOCCOCCO [Example 2.01]	2 nM		
CC[n+]1c(CNC(=O)c2nc(Cl)c(N)nc2N)n(CCOCCOCCNC(=O)c2nc(Cl)c(N)nc2N)c2cc(OC)ccc21 [Example 5.01]	4 nM		
CCn1c(CNC(=O)c2nc(Cl)c(N)nc2N)[n+](CC(=O)NCCCN(C)C(=O)OC(C)(C)C)c2ccc(OC)cc21 [Example 3.17]	4 nM		
CC[n+]1c(CNC(=O)c2nc(Cl)c(N)nc2N)n(CC2(CO)COC2)c2cc(OC)ccc21 [Example 1.02]	2 nM		
C=CC[n+]1c(CNC(=O)c2nc(Cl)c(N)nc2N)n(CCOCCOCCO)c2ccc(OC)cc21 [Example 1.05]	0.4 nM		
CCn1c(CNC(=O)c2nc(Cl)c(N)nc2N)[n+](CCNS(C)(=O)=O)c2ccc(OC)cc21 [Example 9.01]	0.4 nM		
CC[n+]1c(CNC(=O)c2nc(Cl)c(N)nc2N)n(CCOCCOCCNC(=O)OC(C)(C)C)c2cc(OC)ccc21 [Example 1.01]	3 nM		
CCn1c(CNC(=O)c2nc(Cl)c(N)nc2N)[n+](CC(=O)N(C)CCCN(C)C)c2ccc(OC)cc21 [Example 3.07]	39 nM		
